Assay results reported in patent US20230135671A1, “USE OF BIOMARKERS IN THE TREATMENT OF FIBROTIC CONDITIONS” (Boehringer Ingelheim International GmbH, priority 2020, published 2023).

Key:
[1] = system: normal human lung fibroblasts; settings: in vitro; cited from earlier work
IPF patients = settings: multiple clinical trials; cited from earlier work
[2] = system: 14 Nintedanib-responsive genes; experiment: Whole blood RNA-sequencing of the 14 genes, SENSCIS trial, SSc-ILD patients; assay type: in vivo, human; settings: 24 weeks (V70) and, in some instances, 52 weeks (V90), not following Placebo
Method: Blood was sampled into PAXgene RNA tubes (PreAnalytix) and RNA was extracted using the PAXgene Blood RNA kit. Quantity of total RNA was determined by direct absorbance measurement at 260 nm using a spectrophotometer. RNA sequencing libraries were prepared using the Illumina TruSeq Stranded Total RNA Library Prep Kit with Ribo-Zero Globin. […] Library quantity was determined using the Quant-it Pico Green dsDNA reagent and quality was checked by analyzing cDNA fragment size using an Agilent Bioanalyzer 2100 device. […]
Normalization factors to scale the samples based on the raw library sizes were calculated using the weighted trimmed mean of M-values (TMM) method using the default parameters of edgeR’s calcNormFactors function (Robinson and Oshlack, Genome Biol. 2010;11(3):R25.). After these pre-processing steps, the log2 counts per million along with associated weights for each observation were then calculated based on the normalized library sizes from the previous step using limma’s voom function (Law et al., Genome Biol. 2014 Feb 3;15(2):R29.). […] Estimates for the mean log2 fold change between follow-up visit at week 12 (wk12) and baseline (bl) in each treatment arm was calculated as
Following identification of the 14 Nintedanib-responsive genes in the INMARK trial in the context of IPF, expression of these genes was assessed in two additional clinical trials. […]

[3] = system: 14 Nintedanib-responsive genes; experiment: Gene set variation analysis (GSVA) of the 14-gene set, INMARK trial, IPF patients; assay type: in vivo, human; settings: V5 (12 weeks) vs V2, 150 mg b.i.d., p = 1.35E-05, no significant change with Placebo
From the text: (§1) Gene set variance analysis (GSVA): The Bioconductor package Gene Set Variance Analysis version 1.3.2 was applied to score each sample individually for the activity of the 14 genes (LTF, CEACAM6, CTSG, OLFM4, MMP8, CEACAM8, DEFA4, OLR1, SHISA4, ABCA13, EMID1, LMOD1, MPO, and PRTN3). The GSVA function was executed with an expression matrix of the log2 Transcripts Per Million (TPM) with a pseudocount of 0.01 added to each value, the list of 14 genes, and the parameter mx.diff set to true. Statistical differences between the GSVA scores between the different treatment groups were tested using a simple linear model and moderated t-statistics computed by the limma package using an empirical Bayes shrinkage method (Law et al., Genome Biol. 2014 Feb 3;15(2):R29.). Identification of genes altered upon Nintedanib treatment in patients with IPF

[4] = system: primary human lung fibroblasts from IPF patients; settings: cited from earlier work
mouse models of IPF = settings: cited from earlier work
[5] = system: lung fibroblasts from patients with IPF; settings: cited from earlier work
[6] = system: 14 Nintedanib-responsive genes; experiment: GSVA of the 14-gene set, SENSCIS trial, SSc-ILD patients; assay type: in vivo, human; settings: at both visits (24 and 52 weeks), no significant change with Placebo
From the text: as §1
Following identification of the 14 Nintedanib-responsive genes in the INMARK trial in the context of IPF, expression of these genes was assessed in two additional clinical trials. […] In both of these trials, whole blood samples were prospectively collected and the expression of the 14 said genes was retrospectively analyzed by whole-transcriptome RNA-sequencing. […] Similar effects were observed when the fold changes in expression were calculated in a per-patient fashion (FIG. 8).

[7] = system: protein-coding genes in whole blood; experiment: Whole-transcriptome RNA sequencing, differentially expressed genes, INMARK trial, IPF patients; assay type: in vivo, human
Method: Blood was sampled into PAXgene RNA tubes (PreAnalytix) and RNA was extracted using the PAXgene Blood RNA kit. Quantity of total RNA was determined by direct absorbance measurement at 260 nm using a spectrophotometer. RNA sequencing libraries were prepared using the Illumina TruSeq Stranded Total RNA Library Prep Kit with Ribo-Zero Globin. Briefly, following removal of ribosomal RNA and globin-encoding mRNA, cleaved RNA fragments were reversely transcribed into first strand cDNA using reverse transcriptase and random primers followed by second strand cDNA synthesis using DNA Polymerase I and RNase H. Strand origin was kept by using Uracil instead of Thymin in the nucleotide mix for […] cDNA synthesis. Following 3′-adenylation and index adapter ligation, cDNA products were purified and enriched by PCR to create the final cDNA library. Library quantity was determined using the Quant-it Pico Green dsDNA reagent and quality was checked by analyzing cDNA fragment size using an Agilent Bioanalyzer 2100 device. Following library dilution to 5 nM, samples were pooled for cluster generation. […]
Quality control: The raw data (single-end read sequences of the captured cDNA fragments) obtained for each sample were assessed for quality using FASTQC v0.11.2. For a successful gene expression analysis of a sample, approximately 50 million reads were required. Reads were mapped to the human reference genome hg38 (GRCh38 Ensembl v. 84) using STAR v2.5.2a. The mapped reads were assessed using RNA-SeQC v1.1.8, whereby mapping statistics (e.g. unique mapping rate, number of detected genes, proportion of reads mapping to protein coding genes) provided the final criteria to decide on usability of the data.
Gene expression intensities were represented as either read counts or TPM values and calculated based on Ensembl v84 gene annotations using subread featureCounts and RSEM version 1.2.31 respectively. Further steps included the use of bamUtil version 1.0.11 and samtools version 1.1 for intermediate calculations such as indexing of bam-files and duplicate read marking. […]

[8] = clinical trials (i.a. CAPACITY and ASCEND); cited from earlier work
[9] = adj. p-value <0.05, baseline vs week 12

Compound	PDGFR-a and-β activation and proliferation of normal human lung fibroblasts [1]	annual loss of lung function (IPF patients)	expression of most of the 14 genes [2]	change in GSVA score of the 14-gene set [3]	TGF-β-induced fibroblast to myofibroblast transformation [4]	total lung collagen (mouse models of IPF; IPF mouse models)	lymphocyte and neutrophil counts in the bronchoalveolar lavage fluid (mouse models of IPF; two different mouse models of IPF)	PDGF-or FGF-2-stimulated migration of lung fibroblasts [5]	change in GSVA score of the 14-gene set [6]	number of significantly changed genes that were downregulated [7, 9]	number of significantly changed genes that were upregulated [7, 9]	number of protein-coding genes with significant differences in expression pre- vs post-treatment ([7]; adj. p-value <0.05, baseline vs week 12, 150 mg b.i.d.)	decline of the forced vital capacity (FVC) lung function [8]
COC(=O)c1ccc2c(c1)NC(=O)/C2=C(\Nc1ccc(N(C)C(=O)CN2CCN(C)CC2)cc1)c1ccccc1 [Nintedanib, 3-Z-[1-(4-(N-((4-methyl-piperazin-1-yl)-methylcarbonyl)-N-methyl-amino)-anilino)-1-phenyl-methylene]-6-methoxycarbonyl-2-indolinone]	inhibit	reduce	downregulated	highly significant reduction	inhibited	significant reductions	significant reductions	attenuated	significant reduction	18	one	19	–
Cc1ccc(=O)n(-c2ccccc2)c1 [Pirfenidone, 5-methyl-1-phenyl-2(1H)-pyridone]	–	–	–	–	–	–	–	–	–	–	–	–	efficacy in reducing
